In patent US11034692B1 (Genentech, Inc., priority 2017, dated 2021):
pKi: −log10 of the molar value. Where two headings read alike, the source gives them in different places.

Experiments:
[1] = system: primary human pan T cells; experiment: Human T-Cell IL2 Induction Assay; assay type: cell-based; settings: anti-CD3/anti-CD28 stimulated primary human pan T cells
Protocol: Human T-Cell IL2 Induction Assay
Anti-CD3 and anti-CD28 activates TCR signaling in primary human pan T cells leading to IL-2 promoter induction. Secreted IL-2 in cell culture supernatant is detected by electrochemiluminescence using a capture antibody against IL-2 and an anti-IL-2 antibody labeled with SULFO-tag.
See www.mesoscale.com for additional electrochemiluminescence technology information.
Incubate primary human pan T cells with varying concentrations of test compounds for 30 minutes in a humidified incubator at 37° C. and 5% CO2. Transfer cells to a plate pre-coated with a fixed concentration of anti-human CD3 (determined separately for each donor lot) and add soluble anti-human CD28 (final concentration=1 μg/ml). Stimulate cells in a humidified incubator at 37° C. and 5% CO2 for 4 hours. Transfer 25 μl of supernatant to a MSD single spot plate pre-coated with an anti-human IL-2 antibody. Incubate MSD plate overnight at 4° C. with gentle shaking. Wash MSD plate 4× with wash buffer. Add SULFO-tagged detection antibody at a 1:50 dilution and incubate at room temperature shaking for 2 hours. Wash MSD plate 4× with wash buffer and add 150 μl 2×MSD read buffer. Read on an MSD instrument. Normalize data to stimulated/untreated controls to calculate % activity at each concentration of compound.
Materials: • Frozen Primary Human Pan-T Cells (StemCell Technologies #70024) • anti-human CD3 (OKT3 clone) (eBioscience #16-0037-81) • anti-human CD28 (CD28.2 clone) (BD #555725) • 96-well Human IL-2 tissue culture kit (MSD #K151AHB-4)
Instrumentation: • Biomek FX for liquid handling (Beckman Coulter) • MSD SECTOR S 600 (Meso Scale Discovery)
Exemplary compounds of Formula I or Ia were tested in the human T-cell IL-2 induction assays. The % increase measured for IL-2 in cells treated by the test compounds relative to untreated cells are provided in Table B2 for certain compounds (structures as shown with the HPK1 Ki values).

HPK1 [2] = experiment: HPK1 Lantha Binding Assay ("Lanth"); settings: for pKi: Table B1-2, read-out: HPK1 Ki, L = Lanth
Method in brief: (§1)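 Compounds in an 11-point 5-fold series were preincubated 1 h at 23 C with 2 nM kinase plus 2 nM Eu-anti-GST antibody. Then 15 nM Tracer222 was added for another hour, and time-resolved FRET was read at 665/615 nm. Ki values come from a Morrison tight-binding model that uses the tracer Kd.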

[3] = biological target: HPK1-FL (HPK full length, T165E S171E) (Homo sapiens (Human), UniProt Q92918, S171E/T165E); experiment: HPK1-FL HTRF Enzymatic Assay ("HTRF"); assay type: biochemical; settings: Table B2, read-out: HPK1 Ki (nM), H = HTRF
Protocol: HPK1-FL HTRF Enzymatic Assay (“HTRF”)
HPK-FL enzyme phosphorylates Biotin-SLP-76 substrate in the presence of ATP at 1 mM and varying concentrations of test compound. Product is detected by FRET using Eu-anti-pSLP76 Ab and SA-XL665. See www.cisbio.com/HTRF for additional HTRF technology information.
Instrumentation: • Echo555 compound dispenser • Agilent Bravo • Perkin Elmer Envision
Materials: • Assay plate: White ProxiPlate 384 F (PerkinElmer cat #6008289) • Kinase: HPK full length double mutant • Substrate: Biotin-SLP76 • ATP: 100 mM ATP • BSG: 2% BSG • DMSO: DMSO (Sigma cat #34869-100ML) • Reaction Buffer: H2O/50 mM HEPES, pH 7.5/10 mM MgCl2/2 mM TCEP/0.01% Brij-35/0.01% BSG • Detection mix: Eu-anti-pSLP76/SA-XL665 (Cisbio, #610SAXAC)
Assay Procedure Ki Determination:
To a 384 well Proxiplate with 80 nL compound or DMSO spotted on was added 4 μl/well kinase mix. The mixture was preincubated for 30 minutes and then 4 μl/well substrate mix was added. The solution was incubated for 60 min and then 4 μl/well detection mix was added. The solution was incubated for another 60 min. The plates were then loaded onto a Perkin Elmer Envision and the TR-FRET signal was measured at 615 and 665 nm. A ratio of […] was used to calculate the % activity at each concentration of compound.

HPK1 [4] = biological target: HPK1 (Homo sapiens, UniProt Q92918); experiment: HPK1 Lantha Binding Assay ("Lanth"); settings: Table B2, read-out: HPK1 Ki (nM), L = Lanth
Method in brief: as §1

[5] = Table B2, read-out: HPK1 Ki (nM), L = Lanth
[6] = Table B1-1, read-out: HPK1 Ki (μM) (Lanth)

HPK1 (Homo sapiens, UniProt Q92918), sequence (Q92918 whole entry, looked up): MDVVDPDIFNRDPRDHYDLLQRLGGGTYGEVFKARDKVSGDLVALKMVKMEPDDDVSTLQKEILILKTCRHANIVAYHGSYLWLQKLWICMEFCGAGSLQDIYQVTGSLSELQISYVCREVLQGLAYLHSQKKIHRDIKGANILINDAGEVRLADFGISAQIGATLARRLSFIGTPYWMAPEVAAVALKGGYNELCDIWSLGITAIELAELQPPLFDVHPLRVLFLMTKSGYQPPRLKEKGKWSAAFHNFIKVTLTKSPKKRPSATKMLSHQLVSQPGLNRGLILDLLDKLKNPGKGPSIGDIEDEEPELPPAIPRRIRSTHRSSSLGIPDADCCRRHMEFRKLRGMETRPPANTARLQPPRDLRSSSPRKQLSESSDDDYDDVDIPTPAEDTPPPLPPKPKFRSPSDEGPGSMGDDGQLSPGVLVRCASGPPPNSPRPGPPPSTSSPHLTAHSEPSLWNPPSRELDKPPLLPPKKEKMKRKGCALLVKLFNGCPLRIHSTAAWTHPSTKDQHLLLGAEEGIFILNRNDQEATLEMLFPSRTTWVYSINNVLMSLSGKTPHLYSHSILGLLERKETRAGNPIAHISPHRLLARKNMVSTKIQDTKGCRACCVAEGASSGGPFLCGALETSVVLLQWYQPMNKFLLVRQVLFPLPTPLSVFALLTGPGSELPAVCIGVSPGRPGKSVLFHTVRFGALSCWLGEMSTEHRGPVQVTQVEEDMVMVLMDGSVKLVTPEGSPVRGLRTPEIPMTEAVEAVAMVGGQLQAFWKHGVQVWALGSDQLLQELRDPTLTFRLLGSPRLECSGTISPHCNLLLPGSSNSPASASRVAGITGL
HPK1-FL (HPK full length, T165E S171E), sequence (Q92918 whole entry T165E/S171E): as the sequence (Q92918 whole entry, looked up) above, with T165E, S171E counted along it

Structure (SMILES) | Ki (HPK1 [2]; [5]) | Ki (HPK1 [2]; [6]) | % IL-2 increase relative to untreated cells ([1]; assayed concentration 0.93 μM) | other results
Cc1cccc(F)c1-c1cc2cc(NC(=O)[C@@H]3[C@H](C)[C@H]3c3cnn(C)c3)ncc2c(N)n1 (single isomer, unassigned) [Compound 356] | 0.3 nM | – | – | % IL-2 increase relative to untreated cells ([1]; assayed concentration 2.8 μM): 732%; pKi (HPK1 [2]): 9.52
Cc1ccncc1-c1cc2cc(Nc3cc4n(n3)CC(=O)N(C)CC4)ncc2c(N)n1 [Compound 256, 2-[[8-amino-6-(4-methylpyridin-3-yl)-2,7-naphthyridin-3-yl]amino]-6-methyl-4H,5H,6H,7H,8H-pyrazolo[1,5-d][1,4]diazepin-7-one] | – | 0.02 nM | – | % IL-2 increase relative to untreated cells ([1]; assayed concentration 0.31 μM): 699%; Ki [3]: 0.59 nM
CNC(=O)Nc1cc2cc(-c3cnccc3C)nc(N)c2cn1 [Compound 130, 1-[8-amino-6-(4-methyl-3-pyridyl)-2,7-naphthyridin-3-yl]-3-methyl-urea] | 2.6 nM | 2.6 nM | 274% | –
Cc1n[nH]c(C)c1-c1cc2cc(NC(=O)[C@@H]3C[C@@H]3F)ncc2c(N)n1 (racemic) [Compound 103, (±)-cis-N-(8-amino-6-{3,5-dimethyl-1H-pyrazol-4-yl)-2,7-naphthyridin-3-yl)-2-fluorocyclopropane-1-carboxamide] | – | – | – | % IL-2 increase relative to untreated cells ([1]; assayed concentration 0.31 μM): 94%; Ki (HPK1 [4]): 3.8 nM
Cc1ccncc1-c1cc2cc(NC(=O)[C@H]3[C@@H](C)[C@@H]3c3cnn(C)c3)ncc2c(N)n1 (single isomer, unassigned) [Compound 328] | 0.11 nM | 0.114 nM | 936% | –
Cc1ccncc1-c1cc2cc(Nc3cnn([C@H](C)C#N)c3)ncc2c(N)n1 (single isomer, unassigned) [Compound 273] | – | 0.0675 nM | 830% | Ki (HPK1 [4]): 0.06 nM
Cc1ccncc1-c1cc2cc(Nc3ccc(CC#N)cn3)ncc2c(N)n1 [Compound 389, 2-[6-[[8-amino-6-(4-methyl-3-pyridyl)-2,7-naphthyridin-3-yl]amino]-3-pyridyl]acetonitrile] | 0.033 nM | – | – | % IL-2 increase relative to untreated cells ([1]; assayed concentration 0.10 μM): 265%; pKi (HPK1 [2]): 10.48
